According to ChEMBL document CHEMBL3112532, “Synthesis, [¹⁸F] radiolabeling, and evaluation of poly (ADP-ribose) polymerase-1 (PARP-1) inhibitors for in vivo imaging of PARP-1 using positron emission tomography” (Bioorg Med Chem, 2014):

Columns and labels:
[1] = molecular target: Poly [ADP-ribose] polymerase 1 (Homo sapiens, UniProt P09874); assay: Inhibition of PARP-1 (unknown origin) assessed as NAD+ consumption after 20 mins by fluorometric analysis in presence of activated DNA
Tumour [2] = assay: Drug uptake in tumor of athymic nu/nu mouse xenografted with human MDA-MB-436 cells at 200 uCi measured at 60 mins by microPET image analysis; format: ADME, Neoplasm; conditions: 1 h
Tumour [3] = assay: Drug uptake in tumor of athymic nu/nu mouse xenografted with human MDA-MB-436 cells at 200 uCi measured at 60 mins by microPET image analysis in presence of 5,6-Dihydro-2-(4-(2-fluoroethoxy)phenyl)-imidazo[4,5,1-jk][1,4]benzodiazepin-7(4H)-one; format: ADME, Neoplasm; conditions: 1 h
Tumour [4] = assay: Drug uptake in tumor of athymic nu/nu mouse xenografted with human MDA-MB-231 cells at 200 uCi measured at 60 mins by microPET image analysis in presence of olaparib; format: ADME, Neoplasm; conditions: in vivo, 1 h

Sequence of Poly [ADP-ribose] polymerase 1 (P09874 whole entry): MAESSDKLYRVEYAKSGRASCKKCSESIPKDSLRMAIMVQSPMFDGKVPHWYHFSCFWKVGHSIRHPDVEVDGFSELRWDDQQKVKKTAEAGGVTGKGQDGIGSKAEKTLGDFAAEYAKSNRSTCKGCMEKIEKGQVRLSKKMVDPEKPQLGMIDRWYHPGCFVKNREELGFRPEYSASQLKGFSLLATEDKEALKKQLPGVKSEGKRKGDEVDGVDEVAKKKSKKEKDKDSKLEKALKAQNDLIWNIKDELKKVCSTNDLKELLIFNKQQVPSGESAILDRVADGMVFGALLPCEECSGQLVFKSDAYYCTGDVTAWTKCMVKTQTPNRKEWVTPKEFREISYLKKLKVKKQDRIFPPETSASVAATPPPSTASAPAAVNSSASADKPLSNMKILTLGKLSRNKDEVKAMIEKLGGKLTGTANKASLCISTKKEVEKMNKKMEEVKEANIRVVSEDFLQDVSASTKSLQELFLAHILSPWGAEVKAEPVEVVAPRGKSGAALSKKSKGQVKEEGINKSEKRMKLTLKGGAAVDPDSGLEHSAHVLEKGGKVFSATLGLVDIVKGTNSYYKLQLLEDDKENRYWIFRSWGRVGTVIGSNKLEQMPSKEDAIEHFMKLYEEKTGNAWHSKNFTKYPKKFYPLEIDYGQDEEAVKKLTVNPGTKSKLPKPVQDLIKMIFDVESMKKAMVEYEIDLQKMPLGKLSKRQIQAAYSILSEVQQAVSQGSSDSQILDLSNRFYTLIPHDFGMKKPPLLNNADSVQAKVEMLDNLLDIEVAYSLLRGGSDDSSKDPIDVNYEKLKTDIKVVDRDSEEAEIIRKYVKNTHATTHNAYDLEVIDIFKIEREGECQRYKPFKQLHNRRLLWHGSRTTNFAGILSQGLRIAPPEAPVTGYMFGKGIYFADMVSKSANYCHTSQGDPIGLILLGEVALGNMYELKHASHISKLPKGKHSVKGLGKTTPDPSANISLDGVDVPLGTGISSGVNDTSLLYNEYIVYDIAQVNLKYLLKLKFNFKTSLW

| IC50 [1] [nM] | Drug uptake (Tumour [2]) | Drug uptake (Tumour [3]) | Drug uptake (Tumour [4]) | SMILES |
| --- | --- | --- | --- | --- |
| 6.3 | – | – | – | O=C1NCCn2c(-c3ccc(OCCF)cc3)nc3cccc1c32 |
| – | Active | Not Active | Not Active | O=C1NCCn2c(-c3ccc(OCC[18F])cc3)nc3cccc1c32 |
